The values that follow come from US5760048A, “Alpha-mercaptoacrylic acid derivatives having calpain inhibitory activity” (Warner-Lambert Company, priority 1996, dated 1998).

Read-outs that look alike come from different tables or passages of the source. Where only a bound is given, the exact number is not on record here.

One assay deals with T1, calpain I (Homo sapiens, UniProt P07384).
T1 sequence (P07384 1-714): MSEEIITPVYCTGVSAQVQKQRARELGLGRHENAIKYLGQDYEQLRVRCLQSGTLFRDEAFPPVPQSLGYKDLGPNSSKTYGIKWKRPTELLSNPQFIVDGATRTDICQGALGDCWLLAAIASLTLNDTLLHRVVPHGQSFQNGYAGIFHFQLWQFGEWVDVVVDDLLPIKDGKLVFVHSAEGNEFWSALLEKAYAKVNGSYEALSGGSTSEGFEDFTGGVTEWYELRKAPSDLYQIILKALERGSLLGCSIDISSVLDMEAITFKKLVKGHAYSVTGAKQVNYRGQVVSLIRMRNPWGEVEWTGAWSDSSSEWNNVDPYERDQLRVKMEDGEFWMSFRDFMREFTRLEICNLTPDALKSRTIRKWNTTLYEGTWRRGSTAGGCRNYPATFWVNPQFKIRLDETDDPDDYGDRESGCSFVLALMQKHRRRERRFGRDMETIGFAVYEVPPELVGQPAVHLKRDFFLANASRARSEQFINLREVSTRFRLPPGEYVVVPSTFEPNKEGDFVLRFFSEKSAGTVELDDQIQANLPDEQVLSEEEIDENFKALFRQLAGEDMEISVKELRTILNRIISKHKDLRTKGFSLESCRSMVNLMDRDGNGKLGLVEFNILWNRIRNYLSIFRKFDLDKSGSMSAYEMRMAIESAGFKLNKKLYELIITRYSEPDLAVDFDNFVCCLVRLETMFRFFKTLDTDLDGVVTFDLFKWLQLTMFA
T1 sequence (P04632 1-268 partner): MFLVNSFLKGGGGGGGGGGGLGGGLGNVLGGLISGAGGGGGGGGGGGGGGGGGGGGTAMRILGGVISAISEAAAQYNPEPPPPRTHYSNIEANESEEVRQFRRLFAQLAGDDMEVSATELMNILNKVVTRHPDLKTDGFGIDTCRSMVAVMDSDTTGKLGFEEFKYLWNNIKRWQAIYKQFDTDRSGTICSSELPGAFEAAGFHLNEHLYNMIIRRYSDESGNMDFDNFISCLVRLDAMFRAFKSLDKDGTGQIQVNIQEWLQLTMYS
Nature of the assay: Assay of Calpain Activity (casein substrate, microplate, Coomassie blue). In kind it is biochemical. Further details: Calpain I was purified from human erythrocytes; from tissue; host or cells: human erythrocytes. Here is the method: In 250 μL of reaction mixture, substrate casein (0.5 mg/mL) was incubated with 0.01 unit (80-120 ng) calpain I, 20 mM dithiothreitol (DTT), 50 mM Tris-HCl (pH 7.4 at 25° C.), and 4 mM CaCl2 at 25° C. for 60 minutes. Two 100-μL aliquots were taken for Coomassie blue binding analysis to quantify the remaining casein.
Calpain I was assayed as described (α-mercaptoacrylic acid). […] Inhibition of these proteases are presented as IC50.

The next assay addresses T2, trypsin (Bos taurus, UniProt P00760).
T2 construct: purchased Sigma T8003; host or cells: bovine pancreas
T2 sequence (P00760 24-246): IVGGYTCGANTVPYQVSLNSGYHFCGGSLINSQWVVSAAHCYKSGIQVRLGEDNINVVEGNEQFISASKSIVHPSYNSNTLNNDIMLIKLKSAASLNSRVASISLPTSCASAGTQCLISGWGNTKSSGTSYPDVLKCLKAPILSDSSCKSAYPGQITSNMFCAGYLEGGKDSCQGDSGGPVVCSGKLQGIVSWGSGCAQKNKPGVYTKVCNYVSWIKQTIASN
Nature of the assay: Selectivity: trypsin protease assay (casein substrate). Format: biochemical, bovine. The settings on record: Table II; read-out: Inhibitory Activity of Thiol-Acrylates, Trypsin (IC50). As to the method: (§1) Calpain I was assayed as described (α-mercaptoacrylic acid). Ten to 20 ng papain (papaya latex, Sigma, P3125), 1.25 μg trypsin (bovine pancreas, Sigma, T8003), and 5 μg thermolysin (Bacillus thermoproteolyticus, Sigma, P1512) were assayed using 0.5 mg/mL casein as substrate in the microplate format (250 μL reaction volume), essentially as described by Buroker-Kilgore M., Wang K. K. W., Anal Biochem 1993;208:387-392. Inhibition of these proteases are presented as IC50.

The next assay concerns the target T3, thermolysin (Bacillus thermoproteolyticus, UniProt P00800).
T3 construct: purchased Sigma P1512; host or cells: Bacillus thermoproteolyticus
Nature of the assay: Selectivity: thermolysin protease assay (casein substrate). Format: biochemical. As to the method:
as §1

The target in another assay is T4, papain (Carica papaya, UniProt P00784).
T4 construct: purchased Sigma P3125; host or cells: papaya latex
T4 sequence (P00784 134-345): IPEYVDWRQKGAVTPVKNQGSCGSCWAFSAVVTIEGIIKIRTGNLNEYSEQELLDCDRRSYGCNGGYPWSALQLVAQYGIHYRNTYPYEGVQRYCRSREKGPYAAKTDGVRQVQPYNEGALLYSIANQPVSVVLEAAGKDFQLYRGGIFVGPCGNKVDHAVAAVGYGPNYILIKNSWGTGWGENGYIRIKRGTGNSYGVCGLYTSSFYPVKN
Nature of the assay: Selectivity: papain protease assay (casein substrate). In kind it is biochemical. The settings on record: Table II; read-out: Inhibitory Activity of Thiol-Acrylates, Papain (IC50). Here is the method: as §1

For assay [1], the system named is Fetal rat cortical cell cultures. Nature of the assay: Assay of Lactate Dehydrogenase (LDH): NMDA-induced LDH release. In kind it is cell-based. The settings on record: FIG. II; for block of NMDA-induced LDH release (in words): 500 μM NMDA, 200 μM calpain inhibiting compound. As to the method:
Seventeen-day-old cultures were pretreated with 200 μM calpain inhibiting compound (when added) for 1 hour before treatment of 500 μM N-methyl-D-aspartate (NMDA) for 30 minutes (in the absence or the presence of the compound).
In general terms: LDH in the medium is a marker of cell lysis.

Assay [2] deals with spectrin breakdown in rat cortical cell cultures. Nature of the assay: Spectrin Breakdown Measurement (immunoblot). Format: cell-based. The settings on record: NMDA-treated cortical cells, 4-hour post-NMDA. As to the method: Rat cortical cell cultures were treated with NMDA in the absence or presence of calpain inhibiting compounds as described in "Assay of LDH" above. At the end of the 4-hour post-NMDA incubation, cells were lysed with 300 μL buffer containing 20 mM Tris-HCL (pH 7.4 at 4° C.), 1% SDS, 5 mM EGTA, 5 mM EDTA, 1 mM DTT, and various protease inhibitors. Total cellular protein was precipitated by 100 μL of 100% trichloroacetic acid. The samples were centrifuged and the pelleted protein solubilized with 50 μl of 3M Tris base. […] The blots were then probed with rabbit antibrain spectrin antibody (primary antibody) followed by alkaline phosphatase-conjugated goat antirabbit immunoglobulin G antibody (secondary antibody). […] The SBP were quantified by densitometry (BioRad Model 620).
For orientation: A western blot detects proteins with antibodies after separation by electrophoresis.

Where [3] appears, read: Table I, 4 mM CaCl2, pH 7.4, 25° C., 60 minutes, read-out: Inhibitory Activity Against Human Calpain I IC50.
Where [4] appears, read: Table II (selectivity), read-out: Inhibitory Activity of Thiol-Acrylates, Calpain (IC50).

T3 sequence (P00800 233-548): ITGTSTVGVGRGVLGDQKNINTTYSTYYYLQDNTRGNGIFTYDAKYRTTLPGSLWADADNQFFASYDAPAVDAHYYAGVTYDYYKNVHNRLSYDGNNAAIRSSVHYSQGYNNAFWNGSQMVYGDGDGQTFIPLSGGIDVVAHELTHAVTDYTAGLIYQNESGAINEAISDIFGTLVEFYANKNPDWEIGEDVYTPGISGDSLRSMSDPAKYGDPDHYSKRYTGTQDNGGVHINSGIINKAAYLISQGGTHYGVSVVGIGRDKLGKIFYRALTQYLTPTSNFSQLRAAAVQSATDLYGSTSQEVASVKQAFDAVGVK

`O=C(O)/C(S)=C/c1c[nH]c2ccc(F)cc12` [Example 4, 3-(5-fluoro-3-indolyl)-2-mercapto-2-propenoic Acid]: the IC50 on calpain I (setting [3]) came to 450 nM.

Consider `O=C(O)/C(S)=C/c1ccc(I)cc1` [Example 8, (Z)-2-propenoic Acid, 3-(4-iodophenyl)-2-mercapto], for which the IC50 on trypsin was more than 500 µM; against thermolysin, 204 µM; on papain it was more than 500 µM; against calpain I, 360 nM.

`O=C(O)/C(S)=C/c1ccc(F)cc1` [Example 10, 2-Propenoic Acid, 3-(4-fluorophenyl)-2-mercapto]: the IC50 on calpain I (setting [3]) amounted to 1200 nM.

Take `CCn1c2ccccc2c2cc(/C=C(\S)C(=O)O)ccc21` [Example 12]: the IC50 at calpain I (setting [3]) was 1100 nM.

Regarding `COc1ccc(/C(C)=C(\S)C(=O)O)cc1` [Example 14, (Z)-2-Butanoic Acid, 2-mercapto-3-(4-methoxyphenyl)], at calpain I (at 200 μM, Table I, read-out: Inhibitory Activity Against Human Calpain I, % inhibition), the inhibition at 200 µM came out at 66%.

For `O=C(O)/C(S)=C/c1ccc(-c2ccccc2)cc1` [Example 16, (Z)-2-Propenoic Acid, 3-[1,1'-biphenyl)-4-yl-2-mercapto], on calpain I (setting [3]), the 50% inhibitory concentration (IC50) turned out to be 3000 nM.

With `O=C(O)/C(S)=C/c1ccc(OCc2ccccc2)cc1` [Example 18, (Z)-2-Propenoic Acid, 2-mercapto-3-[4-(phenylmethoxy)phenyl]], the “block of NMDA-induced LDH release (in words)” value in assay [1] is listed as “partially blocked”. The IC50 on calpain I (setting [3]) amounted to 1800 nM.

For `O=C(O)/C(S)=C/c1cccc2ccccc12` [Example 20, (Z)-2-Propenoic Acid, 2-mercapto-3-(1-naphthalenyl)], the IC50 at calpain I (setting [3]) was found to be 3600 nM.

Consider `O=C(O)/C(S)=C/c1c[nH]c2ccccc12` [Example 22, (Z)-2-Propenoic Acid, 3-(1H-indol-3-yl)-2-mercapto], for which the IC50 at trypsin is more than 200 µM; against thermolysin, 248 µM; on papain, more than 200 µM; at calpain I (setting [3]) it was 1300 nM; on calpain I (setting [4]), 1300 nM. Besides, the “spectrin breakdown product (SBP) formation, 150 kDa and 145 kDa (in words)” value in assay [2] is “partially blocked SBP formation”.

For the compound `O=C(O)/C(S)=C/c1cc2ccccc2[nH]1` [Example 25, 3-(2-indolyl)-2-mercapto-2-propenoic Acid], on calpain I (setting [3]), the IC50 turned out to be 1700 nM.

For `O=C(O)/C(S)=C/c1cc2ccccc2c2ccccc12` [Example 27, 3-(9--phenanthyl)-2-mercapto-2-propenoic Acid], the IC50 at calpain I (setting [3]) worked out at 3100 nM.

In the case of `O=C(O)/C(S)=C/c1cccs1` [Example 29], the IC50 on calpain I (setting [3]) amounted to 4000 nM.

In the case of `O=C(O)/C(S)=C/c1cc2ccccc2o1` [Example 31, (Z)-2-Propenoic Acid, 3-(2-benzofuranyl)-2-mercapto], at calpain I (setting [3]), the IC50 was 3200 nM.

Regarding `COc1ccc2cc(/C=C(\S)C(=O)O)ccc2c1` [Example 34, (Z)-2-Propenoic Acid, 2-mercapto-3-(6-methoxy-2-naphthalenyl)], on calpain I (setting [3]), the IC50 was found to be 2100 nM.

On to `O=C(O)/C(S)=C/c1ccc2c(c1)OCO2` [Example 36, (Z)-2-propenoic acid, 3-(5-benzodioxoyl)-2-mercapto], for which the IC50 on calpain I (setting [3]) is 1200 nM.

In the case of `Cc1cc(/C=C(\S)C(=O)O)c(C)n1-c1ccccc1` [Example 38, (Z)-2-Propenoic Acid, 3-(2,5-dimethyl-1-phenyl-1H-pyrrol-3-yl)-2-mercapto], on calpain I (setting [3]), the IC50 came out at 13600 nM.

In the case of `CC(C)(C)c1ccc(/C=C(\S)C(=O)O)cc1` [Example 40, (Z)-2-propenoic Acid, 3-[4-(1,1-dimethylethyl)phenyl]-2-mercapto], the concentration for half-maximal inhibition (IC50) on calpain I (setting [3]) was found to be 7800 nM.

For the compound `O=C(O)/C(S)=C/c1c(-c2ccc(Cl)cc2)[nH]c2ccccc12` [Example 42, (Z)-2-propenoic acid, 3-[2-(4-chlorophenyl)-1H-indol-3-yl]-2-mercapto], the IC50 on calpain I (setting [3]) came to 6000 nM.

Turning to `O=C(O)/C(S)=C/c1ccc2c(c1)CCCC2` [Example 44, (Z)-2-propenoic acid, 2-mercapto-3-(5,6,7,8-tetrahydro-2-naphthalenyl)], the IC50 at calpain I (setting [3]) was 1700 nM.

`O=C(O)/C(S)=C/c1ccc(CCc2ccccc2)cc1` [Example 47, (Z)-2-Propenoic Acid, 2-mercapto-3-[4-(2-phenylethyl)-phenyl]]: the IC50 on calpain I (setting [3]) is 2700 nM.

As to `O=C(O)/C(S)=C/c1ccsc1` [Example 49, (Z)-2-Propenoic Acid, 3-(3-thienyl)-2-mercapto], the IC50 at calpain I (setting [3]) was 7500 nM.

Take `O=C(O)/C(S)=C/c1ccccc1` [Example 51, 2-Propenoic Acid, 2-mercapto-3-phenyl]: the IC50 was more than 200 µM on trypsin; 367 µM on thermolysin; more than 200 µM on papain; 5900 nM at calpain I (setting [3]); 5900 nM on calpain I (setting [4]).

With `O=C(O)/C(S)=C/c1ccc2c(c1)Cc1ccccc1-2` [Example 53, 2-Propenoic Acid, 3-(9H-fluoren-2-yl)-2-mercapto], the IC50 at calpain I (setting [3]) stood at 1600 nM.

Consider `C[C@]12N[C@H](Cc3ccccc31)c1ccccc12` [MK-801, reference compound], for which the “block of NMDA-induced LDH release (in words)” value in assay [1] is on record as “blockable”. In assay [2], the “spectrin breakdown product (SBP) formation, 150 kDa and 145 kDa (in words)” value is “inhibited the SBP formation”.

On to `CN[C@H](CC(=O)O)C(=O)O` [NMDA, N-methyl-D-aspartate, reference compound], for which the “LDH release from the cells” value in assay [1] (500 μM NMDA 30 minutes, additional 4 hours) was “about 210 unit/mL”.

By IC50 is commonly meant the concentration needed to halve the response being measured. Usually inhibition stands for the share of the control response that was lost under treatment.
